# Reference: PMC8129133, “Polymer-free corticosteroid dimer implants for controlled and sustained drug delivery” (Nature Communications, 2021)
# Values joined by “and” are separate entries in the source; they are usually repeats but may differ in a detail not shown here. Equal values may be shown once.
# Experiments:
# [1] = rabbit, in vivo
# Method: Analysis of samples was conducted using a SCIEX API 5000 mass spectrometer (Applied Biosystems/MDS Sciex), Shimadzu LC-20ADXR HPLC pumps, Shimadzu SCL-10A controller, and HTS-PAL autoinjector (CTC Analytics). Chromatography was performed using a Waters X-Bridge C-18 (3.5 µm; 100 × 2.1 mm) column equipped with a Phenomenex KrudKatcher ULTRA HPLC In-Line Filter (Part AF0-8497). The column was held at a temperature of 40 °C, while the autosampler compartment was maintained at 4 °C. Mobile phases consisted of: (A) 95:5 H2O:MeOH with 2 mM Ammonium Acetate (NH4OAc) and (B) 85:10:5 MeOH:H2O:MeCN with 2 mM NH4OAc. A gradient elution profile was employed, following the trend of: (0 min 30% B), (0.50 min 30% B), (2.50 min 65% B), (2.51 min 100% B), (4.50 min 100% B), (4.51 min 30% B), (6.50 min 30% B). Flow was constant at 0.6 mL min^-1 with an injection volume of 10 µL. For MS parameters, the system was operated in positive ion mode with a TurboIonSpray probe monitoring transitions (±0.2 AMU) of m/z 393.2 → 373.2 for Dex and 397.3 → 377.2 for the Dex-d4 deuterated internal standard. Analyst Version 1.4.2 (Applied Biosystems-MDS Sciex) was used for instrument control, data acquisition, and peak integrations, while calculations including peak area ratios, standard curve regressions, sample concentration values, and descriptive statistics were performed with the assistance of the ALIS2004 validated LIMS.
# Dex and internal standard (Dex-d4) were extracted from vitreous humor on ice using protein precipitation. Samples were initially centrifuged at approximately 1500 rcf for 5 min to remove any interfering particulates. Stepwise, the protocol for extraction from vitreous humor was to (1) pipette 50 µL of vitreous humor into an extraction tube; (2) add 13 µL H2O and vortex to mix; (3) add 25 µL internal standard spiking solution (100 ng/mL Dex-d4 in a 1:1 solvent of MeOH:H2O); (4) add 25 µL of make-up reagent (1:1 mixture of MeOH:H2O); (5) vortex mix for 5-10 s at a speed setting of 4 or 5; (6) centrifuge at ~60 rcf for 2 min; (7) add 300 µL of 9:1 MeOH:5 mM NH4OAc at pH 7 to precipitate proteins; (8) cap and vortex mix at full speed for 2 min; (9) Centrifuge at approximately 2700 rcf for 5 min; (10) transfer 300 µL of supernatant to a separate tube; (11) vortex the collected supernatant for 30 s at a low to moderate speed; (12) centrifuge at ~1500 rcf for 5 min; (13) store prepared extract at 4 °C until analysis by LC-MS/MS.
# Pharmacokinetics. […] Animals were anesthetized with ketamine (up to ~50 mg/kg) and xylazine (up to ~10 mg/kg). Eyes were surgically prepared before intravitreal procedures with 5% betadine and topical anesthetic eye drops (proparacaine hydrochloride, 0.5%). Prior to test article administration, pupils were dilated with topical application of one drop each of 10% phenylephrine and 1% tropicamide on each cornea.
# Implants (30 G × 6 mm Dex-TEG-Dex extruded rods, Ozurdex®) were injected (30 G needle for Dex-TEG-Dex, 22 G needle for Ozurdex®) intravitreally into the eyes of New Zealand White rabbits (female, 1.5–2.5 kg) with terminal timepoints of 1 and 2 weeks and 1, 2, 3, 6, 9, 12, and 14 months. Ocular tissues and plasma were collected at each timepoint and analyzed for Dex by LC/MS/MS. Whole globe eyes were collected into centrifuge tubes and remained frozen for a minimum of 24 h before dissection and tissue collection. During dissection, vitreous humor containing any remaining test article was collected frozen into pre-weighed centrifuge tubes and stored at −80 °C until further processing.
# [2] = test system: vascular endothelial growth factor (VEGF) induced blood-retinal barrier breakdown; test: Rabbit pharmacodynamics, VEGF-induced vascular leakage; format: in vivo, Dutch Belted rabbits; parameters: key to FA Scoring: 0: major vessels straight, some tortuosity of smaller vessels, no vessel dilation; 1: increased tortuosity of major vessels and/or some vessel dilation; 2: leakage between major vessels, significant vessel dilation; 3: leakage between major and minor vessels, minor vessels still visible; 4: leakage between major and minor vessels, minor vessels poorly/not visible; conditions: single eyes, Fig 9b
# Method: Pharmacodynamics. Rabbit pharmacodynamics studies were performed at Absorption Systems California (San Diego, CA, USA). All studies were conducted in compliance with relevant ethical regulations, including the USDA Animal Welfare Act (i.e., relevant sections of Section 9, Part 1, 2, and 3 of the Code of Federal Regulations) and in compliance with Absorption Systems’ Animal Welfare Assurance filed with the National Institutes of Health. Protocols were reviewed and approved by Absorption Systems’ Institutional Animal Care and Use Committee (IACUC) prior to the initiation of procedures. Treatment of animals was in accordance with conditions specified in the Guide for Care and Use of Laboratory Animals (NRC, 2011, National Academy Press). Animals were anesthetized with intramuscular ketamine hydrochloride (15-20 mg/kg) and xylazine (5 mg/kg) prior to test article injection or vascular leakage induction. The eye area was surgically prepped with 5% betadine and rinsing with balanced salt solution, followed by administration of 1–2 drops of topical proparacaine hydrochloride (0.5%). […] Test articles (27 G × 6 mm, 30 G × 6 mm, and 32 G × 6 mm Dex-TEG-Dex extruded rods, or Ozurdex®) were injected intravitreally in Dutch Belted rabbits (male, 1.84–2.49 kg, 5–6 months) on Day 0 and vascular leakage was induced by an intravitreal injection of VEGF (500 ng/eye) at acute and chronic timepoints (1 week, 2.5, 4.5, 6, 9, 12, and/or 18 months) post-implantation. Post-injection analgesia was provided by 0.02-0.05 mg/kg IM/SC buprenorphine. Negative control rabbits received a sham injection while positive control rabbits received a 2 mg solution dose of triamcinolone acetonide (Kenalog-40). Ophthalmic exams, including fundus microscopy and slit lamp microscopy, were carried out over the 3 days post-VEGF induction and vascular leakage was measured by fluorescein angiography on the third day post-VEGF induction. Eyes were graded based on fundus and fluorescein angiography images using a scoring system as follows[76]: 0 – major vessels straight, some tortuosity of smaller vessels, no vessel dilation; 1 – increased tortuosity of major vessels and/or some vessel dilation; 2 – leakage between major vessels, significant vessel dilation; 3 – leakage between major and minor vessels, minor vessels still visible; and 4 – leakage between major and minor vessels, minor vessels poorly/not visible.
# [3] = cited from earlier work
compound,measurement,setting,value
CC1CC2C3CCC4=CC(=O)C=CC4(C)C3(F)C(O)CC2(C)C1(O)C(=O)COC(=O)OCCOCCOCCOC(=O)OCC(=O)C1(O)C(C)CC2C3CCC4=CC(=O)C=CC4(C)C3(F)C(O)CC21C (stereo not shown) [Dex-TEG-Dex 30G x 6 mm implant],Dex in aqueous humor (ng/ml),[1],BQL
same,Dex in retina (ng/g),[1],BQL
same,Dex in vitreous humor (ng/ml),[1],BQL
CC1CC2C3CCC4=CC(=O)C=CC4(C)C3(F)C(O)CC2(C)C1(O)C(=O)COC(=O)OCCOCCOCCOC(=O)OCC(=O)C1(O)C(C)CC2C3CCC4=CC(=O)C=CC4(C)C3(F)C(O)CC21C (stereo not shown) [Dex-TEG-Dex (30G x 6 mm implant)],FA Scoring,[2]; 7 days,0
same,FA Scoring,[2]; 136 days,0
same,FA Scoring,[2]; 360 d,2 and 3 and 4 and 0 and 1
"OCCOCCOCCO [TEG, triethylene glycol]",toxicity by systemic routes of administration,[3],no significant adverse toxicity
